Assay results taken from patent US20250041377A1, “PHARMACEUTICAL USE” (ENLITISA (SHANGHAI) PHARMACEUTICAL CO., LTD., priority 2018, published 2025).
Where a name gives a salt, the structure may show the parent alone.

What was measured:
[1] = system: bleomycin-induced pulmonary fibrosis; experiment: Idiopathic pulmonary fibrosis (IPF) model; type: in vivo, Sprague Dawley rats; conditions: Day 29
Description: Experimental animals and grouping: 40 adult male Sprague Dawley rats, after 7 days of adaptive feeding, were divided into 4 groups: sham-operation group (Sham), IPF model group (no treatment; Model), test group (Compound B) and positive control group (Positive Control).
The test were administered Compound B, at a dose of 130 μg/rat, which was introduced by aerosolized inhalation. Oral administration of pirfenidone (Etuary®, Beijing Continent Pharmaceutical Co., Ltd., Beijing, China) as a 120 mg/kg single-bolus dose served as the positive control.
A pulmonary fibrosis model was established by intratracheal instillation of bleomycin. The rats were anaesthetised and placed on an operating table in the supine position, to expose the trachea. Bleomycin (5 mg/kg) saline solution was injected into the trachea through the gap between the tracheal cartilage rings. The sham-operation group were given an equal volume of normal saline. Shortly after administration, the rats were lifted vertically and were rotated, in order to evenly disperse the drug. Once the rats had recovered, after approximately 5 days, they were administrated the different drugs according to the plan for 28 days, consecutively.
The exhaust volume of the atomizing device was 0.15 mL per minute. The inhalation time for each rat was 1 minute.
At Day 29 following drug administration, rats were anesthetized by i.p. injection of chloral hydrate. After orbital blood collection, the rats were sacrificed. The thoracic cavity was quickly opened and the lung was collected for further analysis. The lung wet weight was measured, and the lung coefficient was calculated (lung wet weight/rat weight×1000). The tissue was stored in refrigerator at −80° C. for further use.
A piece of lung tissue was accurately weighed, and 9 times the weight of saline was added. Then, the tissue was homogenized and centrifuged for 10 minutes at 3000 rpm. The homogenate was used to detect the expression of the transformation growth factor (TGF-β1), tumor necrosis factor-α (TNF-α) and alpha-smooth muscle actin (α-SMA). Standard ELISA methods were used for the detection. The contents of malonaldehyde (MDA) and the activity of superoxide dismutase (SOD) in lung tissue were also detected.

[2] = system: ammonia induced cough; experiment: Antitussive experiment, ammonia induced cough method; type: in vivo, ICR mice
Description: 36 ICR mice were randomly divided into 3 groups according to their body weight, labelled a CMC-Na (Negative) control group, a dextromethorphan hydrobromide (Positive) control group and a Compound B (B) group. Each group contained 12 mice, with 6 males and 6 females in each.
Compound B was administered via atomization inhalation using a YLS-8A Multifunctional cough and sputum inducing device (Jinan Yiyan Science and Technology Co., Ltd.) (0.15 ml/min) for 1 minute, once daily for 5 days. And the positive control drug was administered once daily by intragastric administration at 10 mg/kg for 5 days.
The mice were placed in an inverted beaker 1, 2, and 4 hours after the last drug administration. 1 mL of aqueous ammonia (25.0 to 28.0%) was placed on top of a boiling water bath and was evaporated into the beaker.
The time for mice to receive ammonia exposure was determined by a method characterized by analyzing data immediately after one test or a batch of tests. The results of the previous analysis determined how to conduct the next test or batch of tests.
The difference between the logarithmic value of two adjacent time periods was 0.1.
The number of coughs within 1 minute was detected using a stethoscope. If a mouse coughed three or more times over one minute, this was labelled as called ‘cough’, and less than three times in one minute was labelled ‘cough free’.
The EDT50 was defined as the ammonia stimulating time at which half mice developed a “cough”, calculated by the equation: […]
(c equals the sum of r and x, r is the number of animals in each stimulating time group, x is the logarithm of stimulation time and n was the number of animals in each group). lg is a base 10 logarithmic value.
In Table 15, R is the EDT50 in treatment group divided by the EDT50 in the Control group expressed as a percentage.

[3] = lung tissue homogenate, Compound B 130 μg/rat aerosolized inhalation, pirfenidone gavage, 28 days

| Structure (SMILES) | TGF-β1 [1, 3] | TNF-α [1, 3] | α-SMA [1, 3] | MDA ([1]; lung tissue) | SOD ([1]; lung tissue) | R ([2]; 1 hour after admin., EDT50 in treatment group divided by EDT50 in Control group) | EDT50 ([2]; 1 hour after last administration, B 195 μg/mouse atomization inhalation, Positive 10 mg/kg intragastric, once daily 5 days) | R ([2]; 2 hours after admin., EDT50 treatment/Control) | EDT50 ([2]; 2 hours after last administration) | R ([2]; 4 hours after admin., EDT50 treatment/Control) | EDT50 ([2]; 4 hours after last administration) |
| --- | --- | --- | --- | --- | --- | --- | --- | --- | --- | --- | --- |
| Cc1ccc(=O)n(-c2ccccc2)c1 [Positive Control, pirfenidone, reference compound] | 0.41 ± 0.03 ng/mg protein | 208.41 ± 17.73 pg/mg protein | 10.98 ± 0.93 pg/mg protein | 0.24 ± 0.05 U/mg protein | 48.59 ± 2.36 U/mg protein | – | – | – | – | – | – |
| COc1ccc2c(c1)[C@]13CCCC[C@@H]1[C@H](C2)N(C)CC3 [Positive, dextromethorphan hydrobromide, reference compound] | – | – | – | – | – | 241.7% | 50.1 s | 207.3% | 44.7 s | 184.8% | 41.4 s |
